Here are results for six compounds from article PMC6891570, “Yuccalechins A–C from the Yucca schidigera Roezl ex Ortgies Bark: Elucidation of the Relative and Absolute Configurations of Three New Spirobiflavonoids and Their Cholinesterase Inhibitory Activities” (Molecules, 2019).

Where two headings read alike, the source gives them in different places.

One assay deals with AChE/BChE. The note with it: previous results; cited from earlier work.
The target in assay [1] is T1, Electric eel AChE (Type-VI-S, EC 3.1.1.7) (Electrophorus electricus, UniProt O42275).
T1 construct: purchased Sigma, St. Louis, MO, USA Type-VI-S (catalogue number not given)
Kind of assay: biochemical. In kind it is biochemical. The note with it: for inhibition at 1000 µM: at 1000 µM final concentration, six replicates, read-out: Inhibition (% ± S.D.) AChE. How it is done:
(§1) The modified Ellman’s assay was used to measure the anti-acetylcholinesterase and anti-butyrylcholinesterase activities of 13, 26, and 29 [81, 82].
(§2) AChE and BChE inhibitory activities were measured by a slightly modified spectrophotometric method of Ellman et al.. Electric eel AChE (Type-VI-S, EC 3.1.1.7, Sigma, St. Louis, MO, USA) and horse serum BChE (EC 3.1.1.8, Sigma, St. Louis, MO, USA) were used as the enzyme sources, while acetylthiocholine iodide and butyrylthiocholine chloride (Sigma, St. Louis, MO, USA) were employed as the substrates of the reaction. 5,5′-Dithio-bis(2-nitrobenzoic) acid (DTNB, Sigma, St. Louis, MO, USA) was used to measure the anticholinesterase activity as the coloring agent. All reagents and conditions were exactly the same as described in our previous publication. Hydrolysis of acetylthiocholine iodide/butyrylthiocholine chloride was monitored by the formation of the yellow 5-thio-2-nitrobenzoate anion, as a result of the reaction of DTNB with thiocholines, catalyzed by enzymes at 412 nm utilizing a 96-well microplate reader (VersaMax Molecular Devices, USA). The measurements and calculations were evaluated by using Softmax PRO 4.3.2.LS software. The percent inhibitions of AChE/BChE were determined by comparing the reaction rates of the samples relative to a blank sample (ethanol in phosphate buffer pH = 8), using the formula (E − S)/E × 100, where E is the activity of enzyme without test sample, and S is the activity of the enzyme with the test sample. The experiments were conducted in six replicates. Galantamine (Sigma, St. Louis, MO, USA) was used as the reference.

Assay [2] addresses T2, horse serum BChE (EC 3.1.1.8) (Equus caballus, UniProt P81908).
T2 construct: horse serum BChE (EC 3.1.1.8, Sigma, St. Louis, MO, USA) were used as the enzyme sources; purchased Sigma, St. Louis, MO, USA; host or cells: horse serum
The assay can be described thus: BChE inhibition, modified Ellman's spectrophotometric assay. The note with it: for inhibition at 1000 µM: read-out: Inhibition (% ± S.D.) BChE. In kind it is biochemical. As for the experimental part: as §1, §2

Where [3] appears, read: at 1000 µM final concentration, six replicates.

T1 sequence (O42275 24-633): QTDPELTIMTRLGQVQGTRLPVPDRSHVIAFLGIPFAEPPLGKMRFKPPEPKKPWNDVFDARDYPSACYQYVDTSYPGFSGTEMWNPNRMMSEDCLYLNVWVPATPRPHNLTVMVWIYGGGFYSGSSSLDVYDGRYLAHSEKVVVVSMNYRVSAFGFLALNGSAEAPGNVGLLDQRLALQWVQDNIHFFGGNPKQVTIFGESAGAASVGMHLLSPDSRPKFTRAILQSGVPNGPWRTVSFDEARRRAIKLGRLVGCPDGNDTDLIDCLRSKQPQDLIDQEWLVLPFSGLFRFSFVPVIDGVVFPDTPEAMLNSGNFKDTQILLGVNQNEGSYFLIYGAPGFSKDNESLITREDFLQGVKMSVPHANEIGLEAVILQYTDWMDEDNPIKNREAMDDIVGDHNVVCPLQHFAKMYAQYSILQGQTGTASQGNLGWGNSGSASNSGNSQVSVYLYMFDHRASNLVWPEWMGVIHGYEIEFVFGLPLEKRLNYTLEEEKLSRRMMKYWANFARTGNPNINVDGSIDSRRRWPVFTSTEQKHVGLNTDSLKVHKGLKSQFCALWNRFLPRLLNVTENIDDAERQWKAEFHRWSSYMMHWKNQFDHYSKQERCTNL
T2 sequence (P81908 whole entry): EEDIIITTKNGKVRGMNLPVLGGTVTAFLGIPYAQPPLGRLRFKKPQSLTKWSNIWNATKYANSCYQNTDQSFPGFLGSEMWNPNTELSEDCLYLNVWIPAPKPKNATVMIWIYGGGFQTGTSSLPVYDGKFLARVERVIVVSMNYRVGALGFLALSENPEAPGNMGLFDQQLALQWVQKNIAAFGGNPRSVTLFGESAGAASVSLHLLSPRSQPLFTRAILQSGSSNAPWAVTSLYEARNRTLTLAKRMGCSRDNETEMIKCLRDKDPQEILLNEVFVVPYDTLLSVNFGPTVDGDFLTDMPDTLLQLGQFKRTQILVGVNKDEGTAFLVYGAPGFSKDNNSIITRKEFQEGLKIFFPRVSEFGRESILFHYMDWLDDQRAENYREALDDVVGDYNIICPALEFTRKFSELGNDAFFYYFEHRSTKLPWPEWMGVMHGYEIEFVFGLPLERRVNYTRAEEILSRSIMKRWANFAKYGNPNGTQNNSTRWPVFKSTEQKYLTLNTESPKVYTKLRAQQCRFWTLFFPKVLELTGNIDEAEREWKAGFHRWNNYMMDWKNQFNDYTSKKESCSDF

Regarding `Oc1cc(O)cc(/C=C/c2ccc(O)c(O)c2)c1` [piceatannol, trans-3,3′,4′,5-tetrahydroxystilbene, reference compound], in the assay on AChE/BChE, the “cholinesterase inhibitory activity (in words)” value is given as “much higher, selective against BChE, activity”.
`COc1c(O)cc(/C=C/c2cc(O)cc(O)c2)cc1O` [Compound 13, trans-3,3′,5,5′-tetrahydroxy-4′-methoxystilbene]: in assay [1], the “activity against AChE (in words)” value is “almost inactive” and the inhibition at 1000 µM worked out at 19.3 ± 3.03%. Further, in assay [2], the “activity against BChE (in words)” value is “almost inactive”. For the same compound, the inhibition at 1000 µM in assay [2] (setting [3]) worked out at 25.2 ± 2.58%.
As to `O=C1Oc2cc(O)c3c(c2C12c1c(O)cc(O)cc1OC2c1ccc(O)cc1)OC(c1ccc(O)cc1)C(O)C3` [Compound 26, (2S,2′R,3R,3′S)-3′,4,5′,6-tetrahydroxy-2,2′-bis(4-hydroxyphenyl)-3′,4′-dihydro-2H,2′H,8′H-spiro[benzofuran-3,9′-furo.[2,3-h]chromen]-8′-one], in assay [1], the IC50 was 294 µM; the “activity against AChE (in words)” value is “very low and selective activities”; the inhibition at 1000 µM was 80.5 ± 1.22%. Also, the inhibition at 1000 µM in assay [2] (setting [3]) turned out to be 48.5 ± 2.29%.
In the case of `Oc1ccc(/C=C/c2cc(O)cc(O)c2)cc1` [Compound 21, Trans-resveratrol], the “cholinesterase inhibitory activity (in words)” value with AChE/BChE is “very weak activity”.
For the compound `COc1ccc2c3c1O[C@H]1C[C@@H](O)C=C[C@@]31CCN(C)C2` [Reference, Galantamine HBr, reference compound], the inhibition at 1000 µM in assay [2] stood at 91.5 ± 1.63%.
On to `O=C1Oc2cc(O)c3c(c2[C@]12c1c(O)cc(O)cc1O[C@H]2c1ccc(O)cc1)O[C@H](c1ccc(O)cc1)[C@@H](O)C3` [Compound 29, (2S,2′R,3S,3′S)-3′,4,5′,6-tetrahydroxy-2,2′-bis(4-hydroxyphenyl)-3′,4′-dihydro-2H,2′H,8′H-spiro[benzofuran-3,9′-furo[2,3-h]chromen]-8′-one], for which, in assay [1], the IC50 is 655 µM; the “activity against AChE (in words)” value was “very low and selective activities”; the inhibition at 1000 µM was 52.5 ± 2.6%. Besides, the inhibition at 1000 µM in assay [2] (setting [3]) was found to be 33.4 ± 1.37%.
